Measurements taken from patent US8389512B2 (priority 2008, dated 2013).
Each block holds one compound with its values, some of them ahead of it.

How the values were obtained:
[1] = 24 hr in-vivo study: meloxicam plasma concentration and pharmacokinetics after oral (gavage) administration to male rats; details: for Time to Reach 0.59 μg/ml: calculated by interpolation of time vs. concentration data
Source text: Male Sprague-Dawley rats, 250-300 g, received with a surgically implanted jugular catheter in place from (Harlan or Taconic Laboratories, USA). Animals were housed one per polycarbonate cage utilizing individual cage cards, with free access to food and water in accordance with NIH guidelines. Animals were quarantined at least 24 hrs after arrival prior to use and patency of the implanted catheter determined on the day of the test. Environmental controls for the animal room were set to maintain 18 to 26° C., a relative humidity of 30 to 70%, a minimum of 10 air changes/hour, and a 12-hour light/12-hour dark cycle. Rats historically have been used in safety evaluation and PK screening studies and are recommended by appropriate regulatory agencies. […] Each rat was weighed and the dose volume adjusted accordingly so that the effect of weight variability on results of study was eliminated and that each rat received 1 mg/kg dose.
(§1) Pharmacokinetic parameters were calculated from individual animal samples using appropriate software (PK Solutions 2.0, Summit Research Services, Montrose, Calif., USA).

[2] = 4 hr in-vivo study: meloxicam plasma concentration after oral delivery to rats; details: rat
Source text: Male Sprague-Dawley rats, 250-300 g, received with a surgically implanted jugular catheter in place from (Harlan or Taconic Laboratories, USA). Animals were housed one per polycarbonate cage utilizing individual cage cards, with free access to food and water in accordance with NIH guidelines. Animals were quarantined at least 24 hrs after arrival prior to use and patency of the implanted catheter determined on the day of the test. Environmental controls for the animal room were set to maintain 18 to 26° C., a relative humidity of 30 to 70%, a minimum of 10 air changes/hour, and a 12-hour light/12-hour dark cycle. […] Each rat was weighed and the dose volume adjusted accordingly so that the effect of weight variability on results of study was eliminated and that each rat received 1 mg/kg dose.
Briefly, using a gradient elution with a Waters Symmetry C18 column (Waters Inc. USA), LCMS with selective reaction monitoring, protein precipitation of the plasma sample using acetonitrile where an LOQ of 50 ng/ml was achieved. Pharmacokinetic parameters were calculated from individual animal samples using appropriate software (PK Solutions 2.0, Summit Research Services, Montrose, Calif., USA).

[3] = cited from earlier work
[4] = IV comparator group, meloxicam pharmacokinetics in rats; assay type: in vivo; details: Sprague-Dawley, rat, plasma, 1 mg/kg, PEG400:DMSO formulation
Experimental: In addition, IV comparator group of 5 rats was used to calculate MAT (mean absorption time) and ka (absorption rate constant) parameters since such parameters cannot be determined for the oral groups.
200 micro liters of blood withdrawn from the indwelling intravenous catheter at 5 minutes, 15 minutes, 30 minutes, 45 minutes, 1, 2, 4, 8, 12 and 24 hours to provide sufficient amount of serum for analysis.
as §1

[5] = Accelerated stability testing of cocrystals (PXRD, FTIR); details: 2 months at 40° C.
[6] = male, Sprague-Dawley, rat, plasma, po, 1 mg/kg
[7] = male rats, 1 mg/kg oral, mean N = 5

Compound: Cc1cnc(NC(=O)C2=C(O)c3ccccc3S(=O)(=O)N2C)s1 [Meloxicam, (8E)-8-[hydroxy-[(5-methyl-1,3-thiazol-2-yl)amino]methylidene]-9-methyl-10,10-dioxo-10λ^6-thia-9-azabicyclo[4.4.0]deca-1,3,5-trien-7-one, reference compound]
- Time to Reach 0.59 μg/ml ([1]; male rats, 1 mg/kg oral): 270.0 min
- AUC [1, 6]: 10000 ng·h/mL
- Cmax [1, 6]: 590 ng/mL
- MRT [1, 6]: 21.8 h
- bioavailability [1, 6]: 15.7%
- concentration at 0.0833 hour [1, 6]: 20 ng/mL
- concentration at 0.25 hour [1, 6]: 190 ng/mL
- concentration at 0.5 hour [1, 6]: 280 ng/mL
- concentration at 0.75 hour [1, 6]: 320 ng/mL
- concentration at 1 hour [1, 6]: 390 ng/mL
- concentration at 2 hour [1, 6]: 510 ng/mL
- concentration at 4 hour [1, 6]: 540 ng/mL
- concentration at 8 hour [1, 6]: 530 ng/mL
- concentration at 12 hour [1, 6]: 460 ng/mL
- concentration at 24 hour [1, 6]: 240 ng/mL
- concentration at 0 min ([2]; male, Sprague-Dawley, plasma, 1 mg/kg, time 0 min): 0 ng/mL
- concentration at 15 min ([2]; male, Sprague-Dawley, plasma, 1 mg/kg, time 15 min): 8190 ng/mL
- concentration at 30 min ([2]; male, Sprague-Dawley, plasma, 1 mg/kg, time 30 min): 14800 ng/mL
- concentration at 45 min ([2]; male, Sprague-Dawley, plasma, 1 mg/kg, time 45 min): 19600 ng/mL
- concentration at 60 min ([2]; male, Sprague-Dawley, plasma, 1 mg/kg, time 60 min): 24000 ng/mL
- concentration at 120 min ([2]; male, Sprague-Dawley, plasma, 1 mg/kg, time 120 min): 30200 ng/mL
- concentration at 240 min ([2]; male, Sprague-Dawley, plasma, 1 mg/kg, time 240 min): 39400 ng/mL
- solubility in methanol ([3]; methanol): very slightly soluble
- solubility in strong acids and bases ([3]; strong acids and bases, compared with water): higher solubility
- solubility in water ([3]; water): practically insoluble
- AUC ([4]; read-out: AUC (area under the plasma concentration-time curve at 24 h)): 63600 ng·h/mL
- MRT ([4]; read-out: MRT (mean residence time)): 14.7 h

- meloxicam plasma concentration ([1]; male rats, 1 mg/kg oral, N = 5, 0.0833 hour): 0.13 µg/mL
- meloxicam plasma concentration ([1]; male rats, 1 mg/kg oral, N = 5, 0.25 hour): 0.87 µg/mL
- meloxicam plasma concentration ([1]; male rats, 1 mg/kg oral, N = 5, 0.5 hour): 1.14 µg/mL
- meloxicam plasma concentration ([1]; male rats, 1 mg/kg oral, N = 5, 0.75 hour): 1.37 µg/mL
- meloxicam plasma concentration ([1]; male rats, 1 mg/kg oral, N = 5, 1 hour): 1.74 µg/mL
- meloxicam plasma concentration ([1]; male rats, 1 mg/kg oral, N = 5, 2 hour): 2.49 µg/mL
- meloxicam plasma concentration ([1]; male rats, 1 mg/kg oral, N = 5, 4 hour): 2.51 µg/mL
- meloxicam plasma concentration ([1]; male rats, 1 mg/kg oral, N = 5, 8 hour): 2.34 µg/mL
- meloxicam plasma concentration ([1]; male rats, 1 mg/kg oral, N = 5, 12 hour): 1.83 µg/mL
- meloxicam plasma concentration ([1]; male rats, 1 mg/kg oral, N = 5, 24 hour): 1.16 µg/mL
- AUC (area under the plasma concentration-time curve at 24 h) [1, 7]: 44100 ng·h/mL
- Cmax (peak plasma concentration) [1, 7]: 2700 ng/mL
- F (bioavailability) [1, 7]: 69.4%
- Time to Reach 0.59 μg/ml ([1]; male rats, 1 mg/kg oral): 10.6 min
- meloxicam plasma concentration ([2]; time 0 min): 0 µg/mL
- meloxicam plasma concentration ([2]; time 15 min): 26.94 µg/mL
- meloxicam plasma concentration ([2]; time 30 min): 42.67 µg/mL
- meloxicam plasma concentration ([2]; time 45 min): 50.18 µg/mL
- meloxicam plasma concentration ([2]; time 60 min): 52.67 µg/mL
- meloxicam plasma concentration ([2]; time 120 min): 59.23 µg/mL
- meloxicam plasma concentration ([2]; time 240 min): 60.85 µg/mL
- Stability in accelerated stability testing (PXRD profiles) ([5]; 75% RH open and closed vials, and 6 months at 40° C. open vial): stable for 6 months
- Stability in accelerated stability testing (FTIR profiles) ([5]; 75% RH, vials open or closed): stable for 2 months
Compound: Meloxicam:Aspirin Cocrystal (1:1) [Cocrystal 73]
